Results as given in patent publication US12351819B2, “Method for removing undifferentiated pluripotent stem cells” (priority 2017, dated 2025).

What was measured:
[1] = test system: cleaved PARP, caspase-3, caspase-7 in hESCs; test: Western blot of apoptotic markers, hESCs; type: cell-based, human; details: 2.5 μM, 12 hours
Protocol: RIPA buffer was used to harvest cell lysates (RIPA buffer: NaCl 150 mM, Tris pH 8.0 50 mM, EDTApH 8.0 5 mM, NP-40 1.0%, SDS 0.5%, sodium deoxycholate 0.1%). Western blot analyses were performed as previously described with different types of primary antibodies^29. The primary antibody includes anti-β-actin (A5441; Sigma), anti-Oct4 (sc-9081; Santa Cruz Biotechnology, Santa Cruz, CA, USA), anti-Nanog (3580; Cell Signaling Technology, Danvers, MA, USA), apoptosis antibody kit (9915; Cell Signaling Technology), ATP1A1 (3010; Cell Signaling Technology), and ATP1A2 (16836-1-AP; Proteintech™) were used. After reaction at 4° C. overnight, the blots were incubated with goat anti-mouse- or goat anti-rabbit antibody conjugated with horseradish peroxidase (Jackson ImmunoResearch Inc). The chemiluminescent substrate (WBKLS0500; Millipore, Darmstadt, Germany) was used to detect the blots. Fujifilm LAS-4000 (FUJIFILM, Tokyo, Japan) was used to take the images.

[2] = test system: hESC-hepatocyte endoderm cells; test: LDH cytotoxicity assay in hESC-derived hepatocyte endoderm; type: cell-based, human; details: Table 1
Protocol: This protocol followed a method previously published in Nature Protocols^36. The hESCs were detached by 0.5 mM EDTA (Life Technologies, Camarillo, C, USA), seeded on VTN-N coated culture plates (Corning) and maintained for 48 hours in mTeSR 1 medium. Then, the medium was refreshed daily for all following steps. On days 1-2, the medium was replaced with fresh CDM-PVA (consisting of 0.5 g of PVA (Sigma) dissolved in 250 ml of IMDM/F-12, GlutaMAX (Invitrogen), 250 ml of IMDM (Invitrogen), 5 ml of chemically defined lipid concentrate (Invitrogen), 20 of thioglycerol 97% (Sigma), 350 of insulin (10 mg/ml; Roche), 250 of transferrin (30 mg/ml; Roche) plus Activin A (100 ng/ml; R&D), bFGF (80 ng/ml; R&D), BMP4 (10 ng/ml; R&D), and […] of LY-294002 (Promega). On day 3, the cells were differentiated in RPMI Medium supplemented with Activin A (100 ng/ml) and bFGF (80 ng/ml). On days 4-6, the cells were expanded in RPMI medium supplemented with Activin A (50 ng/ml). On day 7, the cells were passaged and re-plated 105,000 cells/cm^2 cells in VTN-N coated culture plates in RPMI containing Activin A (50 ng/ml) and Y-27632 2HCl (10 μM Selleck-chem, Houston, TX, USA and Munich, Germany). Then, the cells were maintained in RPMI+Activin A (50 ng/ml) on days 8-11. The cells were differentiated into the hepatocyte endoderm and analyzed following the drug treatments. The expression of alpha-fetoprotein (A0008, Dako, Santa Clara, CA, USA) was analyzed in the hepatocyte endoderm via immunofluorescence staining.

hESCs (H9) = details: for cytotoxic effect (LDH release) in hESCs: 2.5 μM, 24 hours, vs DMSO; for LDH assay positive, hESCs: Table 1
Protocol: (§1) The hESC line H9 was purchased from WiCells (Madison, WI, USA)^27. Another hESC line, HUES6, was kindly provided by Dr. Douglas A. Melton (Harvard University, Boston, MA, USA)^28. Cells were maintained on the feeder cells and cultured in Dulbecco's modified Eagle's medium (DMEM)/F12 supplemented with 20% knockout serum replacement, 2 mM L-glutamine, 1% nonessential amino acids, 4 ng/mL human bFGF, and 0.1 mM 2-mercaptoethanol. For the feeder cells culture, C57BL/6 mouse embryonic fibroblasts (MEF) were cultured in the DMEM with 10% FBS and treated cells with 0.01 mg/ml mitomycin C 2-6 hours for inactivation. For the feeder-free culture, hESCs were seeded on the Matrigel Matrix (BD Biosciences, San Jose, CA, USA) coated culture plates and maintained by conditioned medium of MEF (C57BL/6). hBMMSCs were cultured in mesenPRO RS™ kit (Life Technologies, Camarillo, CA, USA). All cells were cultured in a humidified atmosphere containing 5% CO2 at 37° C.
(§2) The supernatants of cells treated with digoxin […], lanatoside C 2.5 μm, or DMSO solvent control for 24 hours were harvested. The released LDH was measured using CytoTox 96 […] assay according to the manufacture's instruction (Promega, Southampton, UK). The supernatants and reagents were incubated at room temperature for 20 minutes and then the reaction was stopped by Stop Solution. The absorbance at 490 nm was measured using a plate-reading spectrophotometer (Benchmark Plus Microplate Spectrophotometer System, BIO-RAD, CA, USA).

[3] = test system: human bone marrow mesenchymal stem cells (hBMMSCs); details: 2.5 μM, 24 hours, vs DMSO
Protocol: as §1, §2

HUES6 hESCs = test: Cell colony and morphology under bright field, HUES6; type: cell-based, human; details: 2.5 μM, 12 hours and 24 hours
Excerpt: Cells became round and died. […] Data are shown as the mean SD.

hBMMSCs = test: Adipogenesis and Oil Red O assay; type: cell-based, human; details: 2.5 μM 24 hours, drug removed; oil red O.D 510 nm
Protocol: Next, drugs were removed, and the cells were cultured in MSCgo™ Adipogenic Differentiation Medium (Biological Industries). The media was changed every 3-4 days for 8-12 days. After the adipogenic induction, we replaced the MSCgo™ Adipogenic complete medium with MSC maintenance medium for 6-9 days. The cells were carefully fixed with 4% formaldehyde for 1 hour at room temperature, washed with 60% isopropanol, and air-dried. The lipid drops were stained with Oil Red O working solution (30 ml 0.35% oil red solution in isopropanol diluted with 20 ml of distilled water) for 10 minutes. Next, the cells were washed with water 4 times. For quantification, Oil Red O stain was extracted with 100% isopropanol, and the absorbance at 510 nm was detected.

H9 hESC-MSCs = details: 2.5 μM, 24 hours
Protocol: as §2
According to the report from Dr. Xu and colleagues^30, hESCs were cultured with 10 ng/ml BMP4 and 1 μM of A8301 for 5 days. Next, the cells were passaged on the gelatin-coated plate and the culture medium was switched to MSC culture medium [Minimum Essential Medium Eagle Alpha Modification (αMEM) medium supplemented with 20% fetal bovine serum (FBS), 1-glutamine (Gluta-MAX), 1× nonessential amino acids]. Cells were expanded within passage 5, and CD73^+ (11-0793, ThermoFisher Scientific) and CD105^+ (12-1057, ThermoFisher Scientific) double positive cells were sorted.
hESC-derived MSCs were trypsinized and washed with PBS. Then cells were incubated with anti-human CD73 FITC (ThermoFisher Scientific) and anti-human CD105 PE (ThermoFisher Scientific) for 15 minutes at 4° C. Cells were washed cells with PBS for three times. CD73^+/CD105^+ cells were sorted with the cell sorter (BD FACSAria II, BD Biosciences). Sorted cells were maintained in MSC culture medium.

Row | Structure (SMILES) | cleaved form of PARP, caspase-3, caspase-7 in hESCs [1] | LDH assay positive, hepatocyte endoderm cells [2] | cytotoxic effect (LDH release) in hESCs (hESCs (H9)) | LDH assay positive, hESCs (hESCs (H9)) | cytotoxic effect (LDH release) in hBMMSCs [3] | cell death (bright field morphology) in HUES6 (HUES6 hESCs) | differentiation ability of hBMMSCs into adipocytes (hBMMSCs) | cytotoxicity (LDH release) in H9 hESC-MSCs (H9 hESC-MSCs)
1 | C[C@H]1O[C@@H](O[C@H]2[C@@H](O)C[C@H](O[C@H]3[C@@H](O)C[C@H](O[C@H]4CC[C@@]5(C)[C@H](CC[C@@H]6[C@@H]5C[C@@H](O)[C@]5(C)[C@@H](C7=CC(=O)OC7)CC[C@]65O)C4)O[C@@H]3C)O[C@@H]2C)C[C@H](O)[C@@H]1O [Digoxin, digoxin] | increases in the cleaved form | −/+ (10% positive cells) | significantly induced a cytotoxic effect | +++ (more than 70% positive cells) | no cytotoxic effects | induced cell death | neither digoxin nor lanatoside C affected the differentiation ability | Neither Digoxin nor lanatoside C affected the survival
2 | CC(=O)O[C@H]1C[C@H](O[C@H]2[C@@H](O)C[C@H](O[C@H]3[C@@H](O)C[C@H](O[C@H]4CC[C@@]5(C)[C@H](CC[C@@H]6[C@@H]5C[C@@H](O)[C@]5(C)[C@@H](C7=CC(=O)OC7)CC[C@]65O)C4)O[C@@H]3C)O[C@@H]2C)O[C@H](C)[C@H]1O[C@@H]1O[C@H](CO)[C@@H](O)[C@H](O)[C@H]1O [Lanatoside C, lanatoside C] | increases in the cleaved form | −/+ (10% positive cells) | significantly induced a cytotoxic effect | +++ (more than 70% positive cells) | no cytotoxic effects | induced cell death | neither digoxin nor lanatoside C affected the differentiation ability | Neither Digoxin nor lanatoside C affected the survival
